Data taken from patent EP4471048A1, “PEPTIDE INHIBITORS OF INTERLEUKIN-23 RECEPTOR” (Zealand Pharma A/S, priority 2023, dated 2024).

Tests used:
[1] = Peptide stability in simulated intestinal fluid (SIF); type: in vitro ADME; details: 37 °C, porcine pancreatin
How it was run: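 Peptides were incubated at 37 °C with gentle shaking in pH 6.8 potassium phosphate SIF containing porcine pancreatin (10 g/L). Supernatants were analysed by LC-HRMS. Percent remaining at each timepoint, including 4 h, was calculated relative to time zero from absolute peak areas.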

[2] = Peptide stability in simulated gastric fluid (SGF); type: in vitro ADME; details: pig, simulated gastric fluid (SGF) with porcine pepsin (3.2 g/L), 37 °C, porcine pepsin; for remaining at 4 h, 10 µM: pH 1.2, 4 h
How it was run: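 Peptide incubated at 37 °C with gentle shaking in SGF (NaCl, pH 1.2). Samples centrifuged, diluted and analysed by LC-HRMS; percent remaining at each timepoint from absolute peak areas relative to time zero, with 4 h as the reference point.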

## CC(C)C[C@]1(C)NC(=O)[C@H](Cc2ccc3ccccc3c2)NC(=O)[C@H](Cc2ccc(OCCN)cc2)NC(=O)[C@@H]2CCC(=O)N[C@H](CCCCNC(=O)CC[C@@H](C(=O)N[C@@H](CCN)C(=O)N[C@@H](Cc3cccnc3)C(N)=O)NC1=O)C(=O)N[C@@H]([C@@H](C)O)C(=O)N[C@@H](C(C)C)C(=O)N[C@@H](Cc1c[nH]c3ccccc13)C(=O)N[C@@H](CCC(N)=O)C(=O)N2 [Compound 1, [{d}K](1c)(6c)^†TVWQE(6c)[Y(2-aminoethoxy)][2-Nal][2-Me-Leu]E(1c)[Dab][3-(3-Pyridyl)-Ala]-[NH2]]
[1]; 10 µM, pH 6.8, 4 h
  SIF (% remaining 4 h): 0%
[1]; pig, pH 6.8, 1 h
  remaining at 1 h, 10 µM: 23%
[1]; pig, SAR tables, % peptide remaining, pH 6.8, 4 h, read-out: SIF (% after 4 h)
  remaining at 4 h, 10 µM: 0%
[2]; pH 1.2, 10 µM, pH 1.2, 1 h, read-out: SGF (% remaining 1 h)
  remaining at 1 h, 10 µM: 104%
[2]; pH 1.2, 10 µM, read-out: SGF (% remaining 4 h)
  remaining at 4 h, 10 µM: 97%
[2]; pH 1.2, SAR tables, % peptide remaining, 10 µM, read-out: SGF (% after 4 h)
  remaining at 4 h, 10 µM: 104%
